Source: article PMC8113213, “Physiologically based kinetic modelling based prediction of in vivo rat and human acetylcholinesterase (AChE) inhibition upon exposure to diazinon” (Archives of Toxicology, 2021)
Read-outs that look alike come from different tables or passages of the source.

Tests used:
[1] = target: T1, rat RBC AChE (Rattus norvegicus, UniProt P37136); test: In vitro AChE inhibition assay (Ellman) with extracted rat RBC AChE; assay type: biochemical
T1 construct: the membrane fraction (containing AChE) was sedimented by centrifugation at 20,000g for 40 min; tissue BioIVT; host or cells: rat red blood cell membranes (from whole blood)
T1 sequence (P37136 other isoform, or with tags, fused parts or gaps): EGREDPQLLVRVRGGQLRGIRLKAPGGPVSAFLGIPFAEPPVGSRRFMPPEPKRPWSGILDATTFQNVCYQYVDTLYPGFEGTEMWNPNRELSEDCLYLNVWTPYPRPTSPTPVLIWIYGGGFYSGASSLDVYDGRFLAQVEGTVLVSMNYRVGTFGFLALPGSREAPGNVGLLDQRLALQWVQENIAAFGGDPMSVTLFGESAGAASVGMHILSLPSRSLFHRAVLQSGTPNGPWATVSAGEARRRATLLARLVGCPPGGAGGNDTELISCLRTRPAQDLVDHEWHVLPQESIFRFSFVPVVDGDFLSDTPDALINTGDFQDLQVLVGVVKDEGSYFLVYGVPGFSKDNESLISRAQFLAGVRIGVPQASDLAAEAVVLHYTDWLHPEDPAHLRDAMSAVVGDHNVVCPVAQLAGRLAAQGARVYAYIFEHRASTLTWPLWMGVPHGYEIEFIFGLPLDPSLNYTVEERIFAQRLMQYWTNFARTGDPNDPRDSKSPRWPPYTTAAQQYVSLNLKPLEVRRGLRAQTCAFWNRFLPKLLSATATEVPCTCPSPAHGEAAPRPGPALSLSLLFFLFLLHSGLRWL
Procedure: However, since recombinant rat AChE was not commercially available, extracted rat RBC AChE was used. […] The concentration of DTNB was calculated based on the concentration ratio (ATC/DTNB) of 2 (Stern et al. [2014]). […] To initiate the inhibition reaction, 1 µl rhAChE or rat AChE (final concentration 0.6 mU/ml) was added to the incubation. The total incubation volume was 50 µl. After 15 min incubation at 37℃, 150 µl reaction reagents (mixture of ATC at a final concentration of 150 µM and DTNB at a final concentration of 75 µM) were added into each well. The final total volume of each well was 200 µl. Subsequently, the 96-well plate was measured continuously for 10 min at absorbance 412 nm at 37℃ to quantify the remaining AChE activity.
The rhAChE and rat AChE activity were expressed as the remaining AChE activity relative to solvent control (100% activity) and positive control (0% activity) based on Eq. (2):2 AChEactivity\%=A412t10-t0testcompound-A412t10-t0positivecontrol/A412t10-t0solventcontrol-A412t10-t0positivecontrol×100\% , where the A412(t10 − t0)test compound is the change in the absorbance at A412 nm between 0 and 10 min for the test compound, the A412(t10 − t0)positive control is the change in the absorbance at A412 nm between 0 and 10 min for the CPO sample, and the A412(t10 − t0)solvent control is the change in the absorbance at A412nm between 0 and 10 min for the 0.2% ethanol sample.

[2] = test system: CYP450; test: in vitro; assay type: in vitro ADME, rat; conditions: for Km: rat
Procedure: The in vitro incubations for investigating CYP450-mediated biotransformation of DZN were performed using rat and human liver microsomes based on the method described by Sams et al. ([2004]) and Smith et al. ([2011]) with some modifications. Preliminary studies were carried out to optimize both incubation time and microsomal protein concentration, to define conditions at which metabolism was linear with respect to time and the amount of microsomal protein (data not shown) to be used for further kinetic studies. The final incubations contained 50 mM Tris–HCl (pH 7.4), 5 mM MgCl2, 1 mM EDTA (as an A-esterase PON1 inhibitor) (Bizoń and Milnerowicz [2018]), 50 µM iso-OMPA (as a B-esterases inhibitor) (Lane et al. [2006]), 1 mM NADPH, and DZN at final concentrations of 1, 2.5, 5, 10, 25, 50, 100 and 250 µM (added from 100 times concentrated stock solutions in methanol). […] Addition of esterase inhibitors EDTA and iso-OMPA has been commonly applied when studying CYP450-mediated conversion of organophosphate (OP) pesticides in liver microsomal incubations for determining kinetic parameters for their CYP450-mediated pathways (Buratti et al. [2005]; Dadson et al. [2013]; Ellison et al. [2012]; Foxenberg et al. [2007]; Poet et al. [2003]; Smith et al. [2011]). Based on previous studies, CYP450-mediated activities are not adversely affected by the addition of these inhibitors (1 mM EDTA and 50 µM iso-OMPA) to the microsomal incubations (Buratti et al. [2003]; Rasmussen [2012]). After 1 min preincubation in a 37 °C water bath, 2.5 µl of human or rat liver microsomes (final concentration 0.25 mg microsomal protein/ml) were added to initiate the reaction. The total incubation mixture was 200 µl. Control incubations were carried out by replacing NADPH with buffer. The reaction was terminated after 2.5 min by adding 200 µl ice-cold ACN. After the incubation, samples were centrifuged at 16000 g (4℃) for 5 min, and supernatants of rat samples were further diluted 2 × in a mixture of ACN and 50 mM Tris–HCl (pH 7.4) (ratio 1:1, v/v). At the end, both diluted rat sample supernatants and undiluted human sample supernatants were analysed by LC–MS/MS for quantification of metabolite formation.
The chromatographic separations were conducted on a Kinetex® 1.7 µm Phenyl-Hexyl 100 Å LC column (100 × 2.1 mm). The injection volume was 1 µl at a flow rate of 0.3 ml/min. The temperature of the column was kept at 40℃. The mobile phase A consisted of ultrapure water with 0.1% (v/v) formic acid, and mobile phase B consisted of acetonitrile (ACN) with 0.1% (v/v) formic acid. […] The instrument was used in positive mode with multiple reaction monitoring (MRM). The optimized acquisition parameters for DZN, DZO and the metabolite IMHP are listed in Supplementary data I.
The calculation was done using GraphPad Prism 5 for Windows, version 5.04 (GraphPad software, San Diego California USA).

[3] = test system: brain AChE; conditions: cited from earlier work; for inhibition of brain AChE: ref Padilla et al. 2004
[4] = rat, ref Poet et al. 2004, cited from earlier work
[5] = rat; ref JMPR 2016; cited from earlier work
[6] = rat versus human liver microsomes

SMILES: CCOP(=S)(OCC)Oc1cc(C)nc(C(C)C)n1 [DZN, O,O-diethyl O-2-isopropyl-6-methylpyrimidin-4-yl phosphorothioate]
- IC50 ([1]; rat RBC AChE, 15 min incubation at 37℃): 14.7 µM
- toxic equivalency factor (TEF) ([1]; rat, IC50 DZO/IC50 DZN, TEF of DZO set at 1.0): 0.00351
- Vmax DZN to DZO ([2]; rat liver microsomes): 0.288 nmol/min/mg microsomal protein
- Vmax DZN to IMHP ([2]; rat liver microsomes): 1.098 nmol/min/mg microsomal protein
- CYP450-mediated detoxification, more efficient in rat compared to human [2, 6]: 15 fold
- lower Km for CYP450-mediated bioactivation in rat than in human [2, 6]: 12.6 fold
- lower Km for CYP450-mediated detoxification in rat than in human [2, 6]: 9.3 fold
- unscaled catalytic efficiency of CYP450-mediated bioactivation, higher in rat than human [2, 6]: 20 fold
- Km ([2]; pH 7.4, Km DZN to DZO, rat liver microsomes): 4.75 µM
- Km ([2]; pH 7.4, rat liver microsomes, read-out: Km DZN to IMHP): 1.76 µM
- inhibition of brain AChE ([3]; adult rats, oral dose of 75 mg/kg bw): 38%
- BMDL10 for inhibition of brain AChE ([3]; male adult rats, oral DZN, ref USEPA 2016): 12.175 mg/kg bw/day
- inhibition of brain AChE ([3]; pups at postnatal day 17, oral dose of 75 mg/kg bw): 75%
- fractional absorption (fa) ([4]; oral): 0.8
- first-order rate constant for absorption from the intestine into the liver (KaI) [4]: 0.59 h⁻¹
- first-order rate constant for absorption from the stomach into the liver (KaS) [4]: 0.1 h⁻¹
- first-order rate constant for transfer from the stomach into the intestine (KsI) [4]: 0.48 h⁻¹
- toxic dose level reported [5]: 300 mg/kg bw
